In BindingDB's records for patent US10022376 (Pfizer, 2018):

Tests used:
Assay in all cases: JAK Caliper Enzyme Assay at 1 mM ATP
Details in all cases: pH 7.4; 25 °C
[1] = molecular target: Tyrosine-protein kinase JAK1 (Homo sapiens, UniProt P23458)
Procedure: (§1) Test article was solubilized in dimethyl sulfoxide (DMSO) to a stock concentration of 30 mM. An 11-point half log dilution series was created in DMSO with a top concentration of 600 μM. […] The compound plates were diluted 1 to 60 resulting in a top final assay compound concentration of 10 μM and a 2% DMSO concentration.Test article and assay controls were added to a 384-well plate. Reaction mixtures contained 20 mM HEPES, pH 7.4, 10 mM magnesium chloride, 0.01% bovine serum albumin (BSA), 0.0005% Tween 20, 1 mM ATP and 1 μM peptide substrate. […] Enzyme concentrations and incubation times were optimized for each new enzyme preps and were modified slightly over time to ensure 20%-30% phosphorylation. The assays were stopped with a final concentration of 10 mM EDTA, 0.1% Coating Reagent and 100 mM HEPES, pH=7.4. The assay plates were placed on a Caliper Life Science Lab Chip 3000 (LC3000) instrument, and each well was sampled using appropriate separation conditions to measure the unphosphorylated and phosphorylated peptide.

[2] = molecular target: Non-receptor tyrosine-protein kinase TYK2 (Homo sapiens, UniProt P29597)
Procedure: as §1

[3] = molecular target: T1, Tyrosine-protein kinase JAK3 (Homo sapiens, UniProt P52333)
T1 sequence (P52333 whole entry): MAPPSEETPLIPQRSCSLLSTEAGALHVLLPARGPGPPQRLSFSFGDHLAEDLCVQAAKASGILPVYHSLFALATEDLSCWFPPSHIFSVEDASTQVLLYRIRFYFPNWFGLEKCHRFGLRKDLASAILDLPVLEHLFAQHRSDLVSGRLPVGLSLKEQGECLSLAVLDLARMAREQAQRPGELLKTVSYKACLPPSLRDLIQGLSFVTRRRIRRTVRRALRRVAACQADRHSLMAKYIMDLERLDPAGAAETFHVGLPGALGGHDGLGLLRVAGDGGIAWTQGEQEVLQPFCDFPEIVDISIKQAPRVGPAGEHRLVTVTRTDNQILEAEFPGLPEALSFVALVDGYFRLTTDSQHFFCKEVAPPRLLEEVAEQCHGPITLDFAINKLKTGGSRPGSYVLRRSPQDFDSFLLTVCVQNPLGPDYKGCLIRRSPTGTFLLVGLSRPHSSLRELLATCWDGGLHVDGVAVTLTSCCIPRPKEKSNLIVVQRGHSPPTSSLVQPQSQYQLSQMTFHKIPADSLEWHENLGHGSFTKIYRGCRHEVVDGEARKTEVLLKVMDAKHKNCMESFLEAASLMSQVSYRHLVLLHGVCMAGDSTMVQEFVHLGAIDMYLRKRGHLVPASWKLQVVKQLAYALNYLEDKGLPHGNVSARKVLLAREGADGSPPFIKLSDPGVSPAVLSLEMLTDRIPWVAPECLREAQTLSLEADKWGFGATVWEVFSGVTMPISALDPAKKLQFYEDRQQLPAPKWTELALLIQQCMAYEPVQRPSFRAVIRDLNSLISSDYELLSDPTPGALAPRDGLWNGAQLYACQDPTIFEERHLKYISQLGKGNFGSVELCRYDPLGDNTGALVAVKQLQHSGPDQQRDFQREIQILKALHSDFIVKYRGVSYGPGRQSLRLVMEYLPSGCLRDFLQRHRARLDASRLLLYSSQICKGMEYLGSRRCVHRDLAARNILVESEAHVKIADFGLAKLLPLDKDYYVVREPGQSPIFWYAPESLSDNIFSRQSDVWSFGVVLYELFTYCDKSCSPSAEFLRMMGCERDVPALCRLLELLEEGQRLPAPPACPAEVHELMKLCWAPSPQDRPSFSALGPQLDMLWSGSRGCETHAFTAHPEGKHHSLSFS
Procedure: as §1

[4] = molecular target: Tyrosine-protein kinase JAK2 (Homo sapiens, UniProt O60674)
Procedure: as §1

Chain of Non-receptor tyrosine-protein kinase TYK2 (P29597 whole entry): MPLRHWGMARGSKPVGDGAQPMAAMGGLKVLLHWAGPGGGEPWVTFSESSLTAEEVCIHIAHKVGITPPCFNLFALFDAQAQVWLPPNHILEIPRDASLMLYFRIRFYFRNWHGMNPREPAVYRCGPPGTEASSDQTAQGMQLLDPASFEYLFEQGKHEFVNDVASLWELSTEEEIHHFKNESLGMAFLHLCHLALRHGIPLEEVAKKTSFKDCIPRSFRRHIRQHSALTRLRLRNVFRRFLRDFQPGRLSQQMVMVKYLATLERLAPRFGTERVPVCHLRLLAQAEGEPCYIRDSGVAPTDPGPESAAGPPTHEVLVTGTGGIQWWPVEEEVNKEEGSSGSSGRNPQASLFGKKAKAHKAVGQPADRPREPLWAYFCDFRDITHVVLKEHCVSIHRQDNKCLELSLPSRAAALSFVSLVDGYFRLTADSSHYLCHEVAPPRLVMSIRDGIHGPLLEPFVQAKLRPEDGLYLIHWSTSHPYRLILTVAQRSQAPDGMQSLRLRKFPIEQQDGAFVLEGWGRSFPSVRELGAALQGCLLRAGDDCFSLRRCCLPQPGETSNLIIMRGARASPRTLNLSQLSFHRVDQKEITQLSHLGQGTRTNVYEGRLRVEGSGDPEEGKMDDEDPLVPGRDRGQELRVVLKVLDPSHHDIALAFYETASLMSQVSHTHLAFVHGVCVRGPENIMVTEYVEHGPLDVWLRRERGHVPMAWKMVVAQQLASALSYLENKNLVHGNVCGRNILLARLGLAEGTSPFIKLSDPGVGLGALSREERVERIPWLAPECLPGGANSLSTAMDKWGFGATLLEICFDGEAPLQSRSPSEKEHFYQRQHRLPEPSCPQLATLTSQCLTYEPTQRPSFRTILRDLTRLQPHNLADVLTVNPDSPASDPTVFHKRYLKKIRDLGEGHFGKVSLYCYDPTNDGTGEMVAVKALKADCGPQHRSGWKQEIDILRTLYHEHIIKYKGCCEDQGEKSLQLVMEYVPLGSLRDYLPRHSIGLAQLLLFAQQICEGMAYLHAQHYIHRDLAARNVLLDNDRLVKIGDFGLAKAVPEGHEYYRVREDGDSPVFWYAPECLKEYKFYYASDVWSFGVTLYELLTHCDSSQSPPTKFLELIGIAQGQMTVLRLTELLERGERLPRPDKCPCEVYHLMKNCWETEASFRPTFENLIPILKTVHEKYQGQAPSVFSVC
Chain of Tyrosine-protein kinase JAK1 (P23458 whole entry): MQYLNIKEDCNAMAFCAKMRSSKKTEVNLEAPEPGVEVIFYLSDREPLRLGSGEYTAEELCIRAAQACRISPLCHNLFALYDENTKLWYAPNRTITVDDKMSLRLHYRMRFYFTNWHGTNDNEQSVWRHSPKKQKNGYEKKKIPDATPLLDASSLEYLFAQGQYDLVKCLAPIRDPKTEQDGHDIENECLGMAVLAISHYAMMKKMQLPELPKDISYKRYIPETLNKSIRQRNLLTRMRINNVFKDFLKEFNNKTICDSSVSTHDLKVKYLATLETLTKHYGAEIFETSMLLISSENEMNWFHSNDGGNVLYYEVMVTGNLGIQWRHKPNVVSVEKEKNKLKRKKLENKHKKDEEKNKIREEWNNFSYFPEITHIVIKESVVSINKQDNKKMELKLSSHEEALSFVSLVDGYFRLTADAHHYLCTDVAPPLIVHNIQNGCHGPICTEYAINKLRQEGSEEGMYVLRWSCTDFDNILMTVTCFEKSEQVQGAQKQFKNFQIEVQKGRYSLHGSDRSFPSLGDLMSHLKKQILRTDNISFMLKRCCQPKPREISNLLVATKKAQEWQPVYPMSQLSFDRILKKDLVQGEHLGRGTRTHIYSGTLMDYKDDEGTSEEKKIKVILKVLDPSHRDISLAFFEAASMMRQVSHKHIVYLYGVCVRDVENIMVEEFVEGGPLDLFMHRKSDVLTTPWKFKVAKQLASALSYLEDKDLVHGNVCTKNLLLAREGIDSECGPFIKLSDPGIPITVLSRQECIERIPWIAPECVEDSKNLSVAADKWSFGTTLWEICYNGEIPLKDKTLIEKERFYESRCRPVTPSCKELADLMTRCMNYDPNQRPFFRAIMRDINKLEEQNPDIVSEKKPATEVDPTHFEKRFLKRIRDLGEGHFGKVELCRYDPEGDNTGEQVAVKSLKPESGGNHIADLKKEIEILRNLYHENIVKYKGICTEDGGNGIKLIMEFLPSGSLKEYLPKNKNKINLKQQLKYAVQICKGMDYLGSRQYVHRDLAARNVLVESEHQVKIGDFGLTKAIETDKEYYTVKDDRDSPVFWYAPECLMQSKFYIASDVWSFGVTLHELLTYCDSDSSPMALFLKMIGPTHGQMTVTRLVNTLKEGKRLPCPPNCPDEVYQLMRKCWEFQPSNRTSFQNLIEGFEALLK
Chain of Tyrosine-protein kinase JAK2 (O60674 whole entry): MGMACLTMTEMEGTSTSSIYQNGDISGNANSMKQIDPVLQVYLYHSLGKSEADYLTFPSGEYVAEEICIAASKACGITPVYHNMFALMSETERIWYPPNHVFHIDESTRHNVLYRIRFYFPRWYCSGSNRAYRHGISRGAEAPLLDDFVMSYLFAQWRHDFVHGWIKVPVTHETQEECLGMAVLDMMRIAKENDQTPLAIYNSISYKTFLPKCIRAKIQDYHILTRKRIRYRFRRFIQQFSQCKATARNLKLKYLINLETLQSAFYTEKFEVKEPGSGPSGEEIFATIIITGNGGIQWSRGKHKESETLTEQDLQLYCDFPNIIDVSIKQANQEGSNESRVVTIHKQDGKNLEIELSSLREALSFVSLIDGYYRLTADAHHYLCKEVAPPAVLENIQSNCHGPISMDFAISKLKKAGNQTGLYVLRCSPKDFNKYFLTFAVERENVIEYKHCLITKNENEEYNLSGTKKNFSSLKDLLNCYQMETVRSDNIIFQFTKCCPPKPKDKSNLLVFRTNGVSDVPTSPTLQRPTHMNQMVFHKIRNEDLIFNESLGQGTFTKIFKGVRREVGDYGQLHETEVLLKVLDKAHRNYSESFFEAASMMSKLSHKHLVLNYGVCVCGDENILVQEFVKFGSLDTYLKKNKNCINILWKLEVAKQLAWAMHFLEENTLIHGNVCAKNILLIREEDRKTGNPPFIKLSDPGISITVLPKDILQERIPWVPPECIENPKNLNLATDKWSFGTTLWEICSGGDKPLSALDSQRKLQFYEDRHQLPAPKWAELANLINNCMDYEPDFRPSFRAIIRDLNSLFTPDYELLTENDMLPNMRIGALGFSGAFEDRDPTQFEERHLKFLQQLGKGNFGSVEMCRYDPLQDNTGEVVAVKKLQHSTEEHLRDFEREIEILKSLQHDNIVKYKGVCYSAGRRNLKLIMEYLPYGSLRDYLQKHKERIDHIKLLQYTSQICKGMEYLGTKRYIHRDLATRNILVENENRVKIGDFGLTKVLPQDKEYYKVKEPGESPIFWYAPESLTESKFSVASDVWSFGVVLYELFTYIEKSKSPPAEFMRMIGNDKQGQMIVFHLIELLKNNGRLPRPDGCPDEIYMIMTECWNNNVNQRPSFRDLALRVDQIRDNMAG

Row | SMILES | IC50 [1] [nM] | IC50 [2] [nM] | IC50 [3] [nM] | IC50 [4] [nM]
1 | CCN(c1ccc(O)cc1CNc1nc(-c2cc(F)c(O)cc2CC(F)(F)F)nc2[nH]nc(C(=O)NC)c12)S(=O)(=O)c1ccccc1 [US10022376, Example 75] | 61.1 | 1940 | 755 | 321
2 | CN(c1ccc(O)cc1CNc1nc(-c2cc(F)c(O)cc2CC(F)(F)F)nc2[nH]nc(C(N)=O)c12)S(=O)(=O)c1ccccc1 [US10022376, Example 96] |  | 1730 | 248 | 
3 | CCN(c1ccc(O)cc1CNc1nc(-c2cc(F)c(O)cc2CC(F)(F)F)nc2[nH]nc(C(N)=O)c12)S(=O)(=O)c1ccccc1 [US10022376, Example 97] | 55.1 | 2190 |  | 
4 | CN(c1ccccc1CNc1nc(-c2cc(F)c(O)cc2CC(F)(F)F)cc2[nH]nc(C(N)=O)c12)S(C)(=O)=O [US10022376, Example 98] |  |  | 39.6 | 
5 | CN(c1cc(O)ccc1CNc1nc(-c2cc(F)c(O)cc2CC(F)(F)F)cc2[nH]nc(C(N)=O)c12)S(C)(=O)=O [US10022376, Example 99] | 6.8 | 426 |  | 
6 | CNC(=O)c1n[nH]c2nc(-c3cc(F)c(O)cc3CC(F)(F)F)nc(NCc3ccccc3N(CCO)S(C)(=O)=O)c12 [US10022376, Example 100] | 8.7 | 1150 |  | 32.3
7 | CC(=O)N1CCc2[nH]c(-c3n[nH]c4nc(-c5cc(F)c(O)cc5CC(F)(F)F)nc(NCc5cc(O)ccc5N(C)S(C)(=O)=O)c34)nc2C1 [US10022376, Example 105] |  | 14 | 51.2 | 14.4
8 | CNC(=O)c1n[nH]c2nc(-c3cc(F)c(O)cc3CC(F)(F)F)nc(NCc3nccnc3N(C)S(C)(=O)=O)c12 [US10022376, Example 106] | 41.2 | 6110 |  | 283
9 | CN(C)CCNC(=O)N1CCc2[nH]c(-c3n[nH]c4nc(-c5cc(F)c(O)cc5CC(F)(F)F)nc(NCc5cc(O)ccc5N(C)S(C)(=O)=O)c34)nc2C1 [US10022376, Example 110] | 5.4 | 35 |  | 26.9
10 | CN(c1ccc(O)cc1CNc1nc(-c2cc(F)c(O)cc2CC(F)(F)F)cc2[nH]nc(C(=O)Nc3ccc(NCCO)nc3)c12)S(C)(=O)=O [US10022376, Example 164] | 4.5 | 24.2 | 91 | 22.2
11 | CN(c1ccc(O)cc1CNc1nc(-c2cc(F)c(O)cc2CC(F)(F)F)nc2[nH]nc(C(=O)Nc3ccc(NCCO)nc3)c12)S(C)(=O)=O [US10022376, Example 169] | 10.5 | 306 | 59.8 | 
